Test results: patent US9018383B2, “Acylamino-substituted cyclic carboxylic acid derivatives and their use as pharmaceuticals” (Sanofi, priority 2009, dated 2015)

Biological target: human Edg-2 receptor (Homo sapiens, UniProt Q92633)
Test: Determination of Edg-2 receptor inhibition by FLIPR measurements (LPA-mediated calcium liberation)
Format: cell-based
Conditions: CHO cells overexpressing human Edg-2 receptor, LPA 100 nM, fluo-4 calcium fluorescence; read-out: Inhibitory concentrations IC50 for inhibition of the Edg-2 receptor
Protocol: A) Determination of Edg-2 Receptor Inhibition by Fluorescence Imaging Plate Reader (FLIPR) Measurements
The inhibition of the Edg-2 receptor (LPA1 receptor) by the compounds of the invention was quantified by the inhibitory effect on the LPA-mediated calcium liberation in a cell-based calcium fluorescence assay by use of Chinese hamster ovarian (CHO) cells in which the human Edg-2 receptor was stably overexpressed (Flp-In system, Invitrogen). […] Changes in intracellular calcium were determined by fluorescence measurement with the calcium-sensitive dye fluo-4 (Invitrogen) in a fluorescence imaging plate reader (FLIPR, […]).
CHO cells stably overexpressing the human Edg-2 receptor were seeded (40.000 per well) in black clear-bottomed poly-D-lysine-coated 96 well plates (Becton Dickinson, Biocoat cellware) approximately 18-24 h prior to the experiments. Cells were grown in an incubator at 37° C., 5% carbon dioxide and 95% humidity in cell culture media based on F-12 glutamax media (Gibco, #31765) supplemented with 1% (vol/vol) penicilline/streptomycine (PAN, #P06-07100), 10% (vol/vol) fetal calf serum (FCS, PAA, #A15-151) and hygromycin B (Invitrogen, #10687-010) 300 mg/l (final concentrations).
Prior to the FLIPR experiment, cells were loaded with fluo-4 acetoxymethyl ester (fluo-4 AM, Invitrogen, #F14202) for 60 min in an incubator at 37° C., 5% carbon dioxide and 95% humidity in dye-loading buffer consisting of Hanks' Balanced Salt Solution (HBSS, Invitrogen, #14065049) supplemented with fluo-4 AM at 2 μM (all data given for final concentration), Pluronic® F-127 0.05% (vol/vol) (Invitrogen, #P-3000 MP), HEPES 20 mM (Gibco, #15630), probenecid 2.5 mM (Sigma, #P-8761) and bovine serum albumin 0.05% (BSA, Sigma, #A-6003), adjusted to pH 7.5 with sodium hydroxide. During cell loading, fluo-4 AM is cleaved by intracellular esterase resulting in trapping of the dye fluo-4 within the cells. Loading was terminated by washing of the cells in a cell washer (Tecan Power washer) three times with the buffer specified afore but without fluo-4 AM and BSA. This latter buffer was also used as the buffer in the subsequent cell fluorescence measurements.
The dye-loaded and washed cells were pre-incubated for approximately 5 min with various concentrations of the test compound added as a solution in DMSO (0.3% vol/vol maximum final concentration of DMSO), or with DMSO in the respective concentration only (positive control). Subsequent addition of LPA (18:1, 1-oleoyl-sn-glycerol 3-phosphate; 100 nM final concentration) leads to liberation of intracellular calcium from internal stores resulting in a large transient increase of the fluo-4 fluorescence signal which was monitored over approximately 3 min. The percent inhibition caused by the test compound was determined from the maximum fluorescence response after LPA addition to cells pre-incubated with the compound as compared to the maximum fluorescence response after LPA addition to cells pre-incubated with DMSO only. All fluorescence values were corrected for the baseline fluorescence values obtained with cells which were pre-incubated with DMSO only and were not treated with LPA (baseline control). All measurements were performed in triplicate. From the percent inhibitions the inhibitory concentration IC50 was determined.

Chain of human Edg-2 receptor (Q92633 whole entry): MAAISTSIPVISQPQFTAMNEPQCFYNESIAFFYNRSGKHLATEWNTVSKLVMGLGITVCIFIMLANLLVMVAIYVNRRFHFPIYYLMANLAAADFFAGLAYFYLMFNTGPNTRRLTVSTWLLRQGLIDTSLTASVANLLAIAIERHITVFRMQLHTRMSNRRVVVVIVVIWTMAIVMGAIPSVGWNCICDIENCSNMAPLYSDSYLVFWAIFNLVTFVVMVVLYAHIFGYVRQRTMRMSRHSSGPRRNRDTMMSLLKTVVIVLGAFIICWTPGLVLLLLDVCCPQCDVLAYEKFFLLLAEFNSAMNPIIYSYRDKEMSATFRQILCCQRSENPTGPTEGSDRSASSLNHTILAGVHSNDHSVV

SMILES | IC50
CC[C@H]1CC[C@@](NC(=O)c2cc(OCCc3cccc(Cl)c3)c(C(C)=O)s2)(C(=O)O)CC1 [Example 439, trans-1-({5-Acetyl-4-[2-(3-chloro-phenyl)-ethoxy]-thiophene-2-carbonyl}-amino)-4-ethyl-cyclohexanecarboxylic acid] | 100 to 1000 nM
Cc1cccc(CCOc2cc(C(=O)N[C@]3(C(=O)O)CC[C@H](C(F)(F)F)CC3)cc3c2OC(F)(F)O3)c1 [Example 454, Cis-1-{[2,2-Difluoro-7-(2-m-tolyl-ethoxy)-benzo[1,3]dioxole-5-carbonyl]-amino}-4-trifluoromethyl-cyclohexanecarboxylic acid] | < 100 nM
COc1ccc(C(=O)NC2(C(=O)O)CCC(C(F)(F)F)CC2)cc1OCCc1cccc(C)c1 (centres unmarked) [Example 369] | 100 to 1000 nM
COc1ccc(C(=O)NC2(C(=O)O)CCCCCC2)cc1OCCc1ccccc1C [Example 19] | 100 to 1000 nM
COCCOc1ccc(C(=O)N[C@]2(C(=O)O)CC[C@@H](C)CC2)cc1OCCc1cccc(Cl)c1 [Example 114, trans-1-[3-[2-(3-Chloro-phenyl)-ethoxy]-4-(2-methoxy-ethoxy)-benzoylamino]-4-methyl-cyclohexanecarboxylic acid] | 100 to 1000 nM
COCCOc1ccc(C(=O)N[C@]2(C(=O)O)CC[C@H](C)CC2)cc1OCCc1cccc(C)c1 [Example 118, cis-1-[4-(2-Methoxy-ethoxy)-3-(2-m-tolyl-ethoxy)-benzoylamino]-4-methyl-cyclohexane-carboxylic acid] | 1000 to 30000 nM
COc1ccc(C(=O)NC2(C(=O)O)CCC(F)CC2)cc1OCCc1cccc(C)c1 (centres unmarked) [Example 44] | 100 to 1000 nM
CC[C@H]1CC[C@](NC(=O)c2cc(F)c(OCCO)c(-c3cc(F)cc(F)c3)c2)(C(=O)O)CC1 [Example 385] | < 100 nM
CC[C@H]1CC[C@](NC(=O)c2ccc(CCCO)c(-c3cccc(C(F)(F)F)c3)c2)(C(=O)O)CC1 [Example 433, cis-4-Ethyl-1-{[6-(3-hydroxy-propyl)-3′-trifluoromethyl-biphenyl-3-carbonyl]-amino}-cyclohexanecarboxylic acid] | < 100 nM
COc1ccc(C(=O)NC2(C(=O)O)CCCCCC2)cc1OCCc1c(F)cccc1Cl [Example 16] | < 100 nM
COc1ccc(C(=O)NC2(C(=O)O)CCC=CCC2)cc1OCCc1cccc(C)c1 [Example 74, 1-[4-Methoxy-3-(2-m-tolyl-ethoxy)-benzoylamino]-cyclohept-4-enecarboxylic acid] | < 100 nM
COc1ccc(C(=O)N[C@]2(C(=O)O)CC[C@H](C(F)(F)F)CC2)cc1OCCc1cccc(C2COC2)c1 [Example 460, 1-{4-Methoxy-3-[2-(3-oxetan-3-yl-phenyl)-ethoxy]-benzoylamino}-4-trifluoromethyl-cyclohexanecarboxylic acid] | 100 to 1000 nM
COc1ccc(C(=O)NC2(C(=O)O)CCC(C(C)C)CC2)cc1OCCc1cccc(C)c1 (centres unmarked) [Example 29] | < 100 nM
COc1ncc(C(=O)NC2(C(=O)O)CCCCCC2)cc1-c1cccc(OC(F)(F)F)c1 [Example 96] | < 100 nM
CC[C@H]1CC[C@@](NC(=O)c2ccc(OC)c(-c3cccc(C(F)(F)F)c3)c2)(C(=O)O)CC1 [Example 332] | < 100 nM
CC[C@H]1CC[C@](NC(=O)c2ccc(OC)c(OCCc3cccc(OC(F)(F)F)c3)c2)(C(=O)O)CC1 [Example 403, cis-4-Ethyl-1-{4-methoxy-3-[2-(3-trifluoromethoxy-phenyl)-ethoxy]-benzoylamino}-cyclohexanecarboxylic acid] | < 100 nM
COc1ccc(C(=O)NC2(C(=O)O)CCCCCC2)cc1OCCc1ccccc1F [Example 13] | < 100 nM
COc1ccc(C(=O)NC2(C(=O)O)CCC(C)(C)CC2)cc1OCCc1cccc(C)c1 [Example 45] | 100 to 1000 nM
Cc1cccc(CCOc2cc(C(=O)N[C@]3(C(=O)O)CC[C@H](C(F)(F)F)CC3)cc3c2OCO3)c1 [Example 133, cis-1-{[7-(2-m-Tolyl-ethoxy)-benzo[1,3]dioxole-5-carbonyl]-amino}-4-trifluoromethyl-cyclohexanecarboxylic acid] | < 100 nM
Cc1cccc(CCOc2cc(C(=O)NC3(C(=O)O)CCCCCC3)cc3c2OC(F)(F)O3)c1 [Example 455, 1-{[2,2-Difluoro-7-(2-m-tolyl-ethoxy)-benzo[1,3]dioxole-5-carbonyl]-amino}-cycloheptanecarboxylic acid] | < 100 nM
COc1ccc(C(=O)NC2(C(=O)O)CCCC2)cc1OCCc1cccc(C)c1 [Example 35] | 1000 to 30000 nM
COc1ccc(C(=O)NC2(C(=O)O)CCC(CF)CC2)cc1OCCc1cccc(C)c1 (centres unmarked) [Example 59, 4-Fluoromethyl-1-[4-methoxy-3-(2-m-tolyl-ethoxy)-benzoylamino]-cyclohexanecarboxylic acid] | < 100 nM
COc1ccc(C(=O)NC2(C(=O)O)CCCCCC2)cc1OCC(O)c1cccc(C)c1 (centres unmarked) [Example 73, 1-[3-(2-Hydroxy-2-m-tolyl-ethoxy)-4-methoxy-benzoylamino]-cycloheptanecarboxylic acid] | 1000 to 30000 nM
CC(=O)c1ccc(C(=O)NC2(C(=O)O)CCCCCC2)cc1OCCc1cccc(C)c1 [Example 60, 1-[4-Acetyl-3-(2-m-tolyl-ethoxy)-benzoylamino]-cycloheptanecarboxylic acid] | 100 to 1000 nM

Now from value to compound:

IC50 | SMILES
100 to 1000 nM | COc1ncc(C(=O)NC2(C(=O)O)CCCCCC2)cc1-c1cccc(C(C)C)c1 [Example 95]
< 100 nM | COc1ncc(C(=O)N[C@]2(C(=O)O)CC[C@H](C)CC2)cc1OCCc1cccc(Cl)c1 [Example 356, cis-1-({5-[2-(3-Chloro-phenyl)-ethoxy]-6-methoxy-pyridine-3-carbonyl}-amino)-4-methyl-cyclohexanecarboxylic acid]
< 100 nM | COc1ncc(C(=O)N[C@]2(C(=O)O)CC[C@@H](C)CC2)cc1-c1cccc(Cl)c1Cl [Example 311]
< 100 nM | CC[C@H]1CC[C@](NC(=O)c2cnc(OC)c(-c3cccc(OC(F)(F)F)c3)c2)(C(=O)O)CC1 [Example 299, cis-4-ethyl-1-{[6-methoxy-5-(3-trifluoromethoxy-phenyl)-pyridine-3-carbonyl]-amino}-cyclohexanecarboxylic acid]
< 100 nM | CC[C@H]1CC[C@](NC(=O)c2cnc(OC)c(-c3ccc(F)c(F)c3)c2)(C(=O)O)CC1 [Example 359, cis-1-{[5-(3,4-Difluoro-phenyl)-6-methoxy-pyridine-3-carbonyl]-amino}-4-ethyl-cyclohexanecarboxylic acid]
< 100 nM | COc1ncc(C(=O)N[C@]2(C(=O)O)CC[C@@H](C)CC2)cc1OCCc1cc(Cl)ccc1F [Example 81, trans-1-({5-[2-(5-Chloro-2-fluoro-phenyl)-ethoxy]-6-methoxy-pyridine-3-carbonyl}-amino)-4-methyl-cyclohexanecarboxylic acid]
< 100 nM | COc1ncc(C(=O)N[C@]2(C(=O)O)CC[C@@H](C)CC2)cc1-c1cc(Cl)cc(C(F)(F)F)c1 [Example 315]
< 100 nM | COc1ccc(C(=O)N[C@]2(C(=O)O)CC[C@@H](C)CC2)cc1OCCc1cccc(C)c1 [Example 43, trans-1-[4-Methoxy-3-(2-m-tolyl-ethoxy)-benzoylamino]-4-methyl-cyclohexanecarboxylic acid]
100 to 1000 nM | CCc1ncc(C(=O)N[C@]2(C(=O)O)CC[C@H](C)CC2)cc1OCCc1cccc(Cl)c1 [Example 435, cis-1-({5-[2-(3-Chloro-phenyl)-ethoxy]-6-ethyl-pyridine-3-carbonyl}-amino)-4-methyl-cyclohexanecarboxylic acid]
1000 to 30000 nM | COc1ncc(C(=O)N[C@]2(C(=O)O)CC[C@@H](C)CC2)cc1OCCc1cc(C)ccc1C [Example 84, trans-1-({5-[2-(2,5-Dimethyl-phenyl)-ethoxy]-6-methoxy-pyridine-3-carbonyl}-amino)-4-methyl-cyclohexanecarboxylic acid]
< 100 nM | COc1ncc(C(=O)N[C@]2(C(=O)O)CC[C@H](C(F)(F)F)CC2)cc1-c1cc(F)c(F)c(F)c1 [Example 375]
